Results: patent publication US5298502A, “Method and composition for photodynamic treatment and detection of tumors” (priority 1991, dated 1994)

What was measured:
[1] = system: cotyledons harvested from etiolated cucumber seedlings; assay: Percent Efflux test (Efflux Experiment); format: tissue-based, Cucumis sativus L.; details: 100 nM concentration
Description: The enzyme-inhibiting agent is preferably one which has a high capacity for disrupting the plasmalemma of plant material. One test for that capacity is the Efflux Experiment described in the article by Halling and Peters in Plant Physiology, 84, 1114-5 (1987).
The Percent Efflux test employs cotyledons harvested from etiolated cucumber seedlings. In an initial step a mass of cotyledons is treated in the dark with an aqueous buffered solution containing a radiolabelled sugar. The amount of the sugar taken up by the cotyledons is then measured (by counting, as described below). […] The cotyledons, in contact with the aqueous solutions, are then exposed to light for 16 hours, and then separated from the aqueous solutions; the latter are then measured (by counting) to determine their contents of radiolabelled material. The results are expressed as Percent Efflux Which is calculated as follows, where S is the count of radiolabelled material (per cotyledon) taken up by the cotyledons in their initial treatment, ST is the count of radiolabelled material (per cotyledon) in the aqueous solution containing the compound to be tested, after the exposure to light and Sc is the count of radiolabelled material (per cotyledon) in the aqueous solution of the control, after exposure to light: [formula] […]

[2] = system: human erythrocytes; details: introduced into human erythrocytes; cited from earlier work
[3] = system: murine leukemia cells; details: cited from earlier work
[4] = system: tumors; details: injected into animals; cited from earlier work
[5] = system: HeLa cells; assay: Tetrapyrrole accumulation in treated HeLa cells (Example 1); format: cell-based, human; details: 100 μM agent, 3 days in the dark
Description: HeLa cells (a human tumor cell line commonly employed for tumor research and obtained from the American Type Culture Collection), in logarithmic growth phase (having been cultured at 37° C. for five days in one-liter Falcon tissue culture flasks), were washed in phosphate buffered saline (PBS). A 0.25% solution of trypsin in PBS (2 mL) was added, and, after several minutes, the cells were gently removed from the flask and placed into 110 mL of a 25 mM solution of Hepes in Minimum Essential Medium (MEM) supplemented with 10% v/v inactivated calf serum, 1.1 mL of a 200 mM solution of glutamine in 0.85% saline solution, and 11,000 units of penicillin/11,000 mcg streptomycin.
Then, 5.0 mL aliquots of the resulting resuspended cell culture were each placed into a 50 mL Falcon tissue culture flask and (except for the control) mixed with the treating agent. The aliquots were then incubated in the dark at 37° C. for three days. The cells were then removed and extracted under green light in the following manner:
Cells were removed from the bottom of the flask with the addition of 0.8 mL of a 0.25% solution of trypsin in PBS. After 1 hour of incubation in the dark, cells and medium were removed from the flasks, placed into round bottom centrifuge tubes, and then subjected to two rounds of freeze-thaw conditions to disrupt the cells and allow for extraction.
Ten mL of basic acetone (90% acetone:10% of 0.1 N NH4 OH) was then added to each tube, and the tubes were centrifuged to remove protein and cell debris. Five mL of water was added to the supernatant, followed by 0.5 mL of a saturated aqueous solution of NaCl. The pH was then adjusted to 6.8 by the dropwise addition of 2 M KH2 PO4. The aqueous acetone extract was then loaded onto a C8 Baker Prep column. The columns were dried and then washed with 2 mL of water. The tetrapyrroles were eluted with 2×1.5 mL volumes of 90/10 CH3 OH/H2 O. Extracts were then quantified on a spectrofluorometer.
Agent A was supplied as a filter-sterilized 250 mM solution in water, pH 6.5. Agents B, C, D, and E were supplied as 50 mM solutions in acetone. Acetone was also added to the control to provide a concentration of 0.2% v/v therein. The amounts of the agents added to the cell cultures were such as to give the concentrations specified in the Table 1 below. The amounts of the tetrapyrrole protoporphyrin IX ("Proto IX") produced are shown in that Table.

[6] = system: HeLa cells; assay: Growth inhibition and Proto IX accumulation in HeLa cells (Example 2); format: cell-based, human; details: 100 μM agent
Description: HeLa cells, in logarithmic growth phase having been cultured for 6 days in six one-liter Falcon tissue culture flasks at 37° C.), were washed in phosphate buffered saline (PBS). A 0.25% solution of trypsin in PBS was added, and, after several minutes, the cells were gently removed and placed into 110 mL of a 25 mM solution of Hepes in Minimum Essential Medium (MEM), supplemented with 10% v/v inactivated calf serum, 1.1 mL of a 200 mM solution of glutamine in 0.85% saline solution, and 11,000 units of penicillin/11,000 mcg streptomycin.
Aliquots (5.0 mL each) of the resuspended cell culture were placed into 50 mL Falcon tissue culture flasks, with or without herbicide, and incubated in the dark at 37° C. for 4 days, the herbicide being added in dilute acetone solution as in Example 1. Acetone was also added to the controls to provide a concentration of acetone of 0.2% v/v therein. The amount of herbicide was such as to provide the concentrations specified in Table 2 below.
Extraction: The media from each of the flasks were placed in glass round bottom tubes, while the cells adhering to the bottom of the flasks were loosened by the addition of 0.5 mL of a 0.25% solution of trypsin in PBS, and after several minutes at 37° C., then washed from the flasks and recombined with their media. Aliquots of 100 μL were then removed from each cell suspension to determine cell density. The remaining 5.4 mL of cell suspension was then sonified for 30 minutes to disrupt the cells.
Ten mL of basic acetone (90% acetone:10% 0.1 N NH4 OH) was then added to each tube, and the tubes were centrifuged to remove protein and cell debris. Five mL of water was added to the supernatant, followed by 0.5 mL of a saturated aqueous solution of NaCl. The pH was then adjusted to 6.8 by the dropwise addition of 2 M KH2 PO4. The aqueous acetone extract was then loaded onto a C8 Baker Prep column. The columns were dried and then washed with 2 mL of water. The tetrapyrroles were eluted with 3 mL of 90/10 CH3 OH/H2 O. As in Example 1, all these extraction procedures were carried out substantially entirely under non-protoporphrin IX-exciting light (e.g. green light) or in the dark (e.g. in opaque covered containers). The fluorescence of the extracts was then determined on a SPEX spectrofluorometer. Protoporphyrin IX ("Proto IX") accumulation was quantified utilizing predetermined extinction coefficients.

[7] = system: enzymatic conversion of Proto IX to magnesium Proto IX; assay: Conversion of Proto IX to magnesium Proto IX in chloroplast suspension; format: biochemical, Cucumber (Cucumis sativus L.); details: 10 μm AFM, in the presence of ATP
[8] = target: Protoporphyrinogen Oxidase; assay: Protoporphyrinogen oxidase assay using isolated enzyme; format: biochemical, Peas (Pisum sativum var. Little Marvel); details: isolated pea etioplast enzyme
Description: Plant Material and Homogenization: Peas (Pisum sativum var. Little Marvel) germinated at 20° C. in a dark growth chamber ten days. Plants were illuminated for one hour per day, which allowed for significant leaf expansion while minimizing chlorophyll synthesis. Leaves were pale yellow-green in color.
The leaves were then homogenized in 500 mL of grinding media consisting of 0.5 M mannitol, 10 mM HEPES, 20 mM TES, 1 mM EDTA, 1 mM MgCl2, 5 mM cysteine, and 0.2 BSA, pH 7.7. The brei was then passed through four layers of cheesecloth, then through a 43-micron nylon mesh. The hemogenate was then centrifuged at 4000 g for 3 minutes. The resultant pellet was utilized for plastid isolation.
Etioplast Isolation and Purification: The pellet (plastid fraction) was resuspended in 40 mL of assay media (grinding media minus cysteine and containing 1 mM DTE and 1% ESA) and centrifuged at 150 g to remove cellular debris. The resultant supernatant was centrifuged at 4000 g, and the resuspended pellets were overlaid on 40% Percoll. […]
Protein content was determined utilizing the BioRad method. […]
Purification Utilizing DEAE Chromatography: A 0.75 mL volume of plastid-solubilized-enzyme preparation was loaded onto a Waters Protein-Pak DEAE-5PW column (8 mm×7.5 cm) equilibrated with Elution Buffer. […] Peaks were detected using a Waters 494 UV detector at 260 nm, sensitivity:1AU. […]

[9] = system: mosquito larvae; assay: Insecticidal test against mosquito larvae; details: in vivo
[10] = system: cabbage loopers; assay: Insecticidal test against cabbage loopers; details: in vivo

C#CCOc1cc(-n2nc(C)n(C(F)F)c2=O)c(F)cc1Cl [1-(4-chloro-2-fluoro-5-propargyloxyphenyl) -3-methyl-4-difluoromethyl-Δ^2-1,2,4-triazolin-5-one]
total efflux [1]: over 90%

C=CC1=C(C)c2cc3[nH]c(cc4nc(cc5[nH]c(cc1n2)c(C)c5CCC(=O)O)C(CCC(=O)O)=C4C)c(C)c3C=C [protoporphyrin]
photosensitizing effect [2]: marked photosensitizing effect | photosensitizing potency [3]: most potent photosensitizing agent of those tested | protoporphyrin in the tumors after injection [4]: no detectable protoporphyrin in the tumors

CCOC(=O)C(C)OC(=O)c1cc(Oc2ccc(C(F)(F)F)cc2Cl)ccc1[N+](=O)[O-] (stereo not shown) [lactophen, 1-(carboethoxy)ethyl 5-(2-chloro-4-trifluoromethylphenoxy) -2-nitrobenzoate, reference compound]
total efflux [1]: over 90%

COC(=O)c1cc(Oc2ccc(C(F)(F)F)cc2Cl)ccc1[N+](=O)[O-] [Agent B, Acifluorfen-methyl]
Amount of Proto IX [5]: 1.3 pmol | Fluorescence Emission cps 400/630 [5]: 12921 cps | Amount of Proto IX ([6]; average amount per 10^6 cells): 5.20 pmol | inhibition at 100 µM ([6]; Homo sapiens, HeLa, 96 h, 4 days in the dark): 99% | effect on enzymatic conversion of Proto IX to magnesium Proto IX [7]: no inhibiting effect | pI50 (negative log of the I50 Molarity) [8]: 7.1 | IC50 ([8]; read-out: I50): 80 nM | activity against mosquito larvae [9]: active | activity against cabbage loopers [10]: active

C#CCOc1cc(-n2nc(C)n(C(F)F)c2=O)c(F)cc1Cl [Agent 7f]
activity against mosquito larvae [9]: active | activity against cabbage loopers [10]: active
